The results in this text go back to ChEMBL document CHEMBL3804831, “N-Acyl Dehydrotyrosines, Tyrosinase Inhibitors from the Marine Bacterium Thalassotalea sp. PP2-459” (J Nat Prod, 2016).

Active and inactive are the calls of the source. No cut-off for these calls is given here.

The target of one assay is T1, Tyrosinase (Agaricus bisporus, UniProt O42713).
T1 sequence (O42713 whole entry): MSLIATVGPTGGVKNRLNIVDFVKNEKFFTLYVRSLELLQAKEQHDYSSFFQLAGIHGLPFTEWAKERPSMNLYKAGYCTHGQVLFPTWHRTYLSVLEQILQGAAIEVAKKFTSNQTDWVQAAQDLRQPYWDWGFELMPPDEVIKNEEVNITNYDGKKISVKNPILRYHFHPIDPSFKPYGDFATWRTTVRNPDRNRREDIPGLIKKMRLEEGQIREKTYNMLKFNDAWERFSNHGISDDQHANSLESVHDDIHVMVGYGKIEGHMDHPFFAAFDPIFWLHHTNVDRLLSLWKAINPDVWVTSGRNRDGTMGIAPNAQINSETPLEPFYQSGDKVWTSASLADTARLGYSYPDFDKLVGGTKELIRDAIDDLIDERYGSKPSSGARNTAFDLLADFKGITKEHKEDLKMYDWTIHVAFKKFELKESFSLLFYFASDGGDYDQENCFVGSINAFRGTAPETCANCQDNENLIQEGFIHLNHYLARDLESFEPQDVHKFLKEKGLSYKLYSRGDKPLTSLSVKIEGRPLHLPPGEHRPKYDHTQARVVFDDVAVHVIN

The target in assay [1] is T2, Tyrosinase (Agaricus bisporus) (UniProt O42713).
T2 sequence (whole entry): T1 sequence (O42713 whole entry)
Briefly: Inhibition of mushroom tyrosinase at 1 mM using L-tyrosine as a substrate after 30 mins by spectrophotometric method.

Take `CCCCCCCCCC(=O)N/C(=C\c1ccc(O)cc1)C(=O)O`: 130 µM corresponded to half-maximal inhibition on Tyrosinase (IC50).
As to `CC(C)CCCCCCC(=O)N/C(=C\c1ccc(O)cc1)C(=O)O`, the IC50 (usually the concentration that gives 50% inhibition) at Tyrosinase came to 470 µM.
At Tyrosinase, `CCCCCCCCC(=O)N/C(=C\c1ccc(O)cc1)C(=O)O` registered an IC50 of 280 µM.
For `CCCCCCCCCC(=O)N/C(=C\c1ccc(O)cc1)C(N)=O`, the inhibition result in assay [1] was “inactive”.
As for `CC(C)CCCCCCC(=O)N/C(=C\c1ccc(O)cc1)C(N)=O`, the inhibition result in assay [1] was “inactive”.
